These results are taken from patent US20250241586A1, “Bioavailability and bioequivalence through intrinsic activity and KD measurements, in vivo, in humans” (priority 2024, published 2025).

Data set [1] deals with K+ channels of the beta cells of the pancreas (Homo sapiens, UniProt Q09428). The following applies: for KD: in vivo in humans, from slope of 1/fractional response vs 1/A plot.
A further data set concerns benzodiazepine receptors. Kind of data set: Sleep time in human male volunteers; in vivo KD from reciprocals plot. The following applies: for A Free drug**: free drug quantity crossing the blood brain barrier. The method, then:
Drug action is measured by the following parameters all measured in vivo in living animals/humans. • A) Onset time and threshold dose/concentration (minimum dose/concentration to initiate the effect,) these indicate the potency of the drug. • B) Intrinsic Activity or the maximum possible effect, • C) Dissociation constant. Its reciprocal measures the affinity of the drug for the receptor. The above named, parameters have been measured as stated below:
The literature also notes that there could be huge differences in in vivo and in vitro values and in such cases in vivo values are to be taken, if available (1). […] A point in this regard is that many drugs act on multiple receptor systems and in such cases the response is to be chosen such that only one receptor system is involved. […] The assumption is valid since the amount of bound drug is negligible compared to the total amount of drug at receptor and may be neglected. […] Alprazolam was administered to human male volunteers with sound health, of average weight and having normal creatinine clearance in the doses of 4 mcg/kg, 6 mcg/kg and 8 mcg/kg, and onset and sleep times noted. • The amount of free drug crossing the blood brain barrier was obtained.

The conditions of data set [2]: in vitro and cell culture; read-out: KD literature values; cited from earlier work.

SMILES strings stand for the structures. Read-outs that look alike come from different tables or passages of the source.

Chain of K+ channels of the beta cells of the pancreas (Q09428 whole entry): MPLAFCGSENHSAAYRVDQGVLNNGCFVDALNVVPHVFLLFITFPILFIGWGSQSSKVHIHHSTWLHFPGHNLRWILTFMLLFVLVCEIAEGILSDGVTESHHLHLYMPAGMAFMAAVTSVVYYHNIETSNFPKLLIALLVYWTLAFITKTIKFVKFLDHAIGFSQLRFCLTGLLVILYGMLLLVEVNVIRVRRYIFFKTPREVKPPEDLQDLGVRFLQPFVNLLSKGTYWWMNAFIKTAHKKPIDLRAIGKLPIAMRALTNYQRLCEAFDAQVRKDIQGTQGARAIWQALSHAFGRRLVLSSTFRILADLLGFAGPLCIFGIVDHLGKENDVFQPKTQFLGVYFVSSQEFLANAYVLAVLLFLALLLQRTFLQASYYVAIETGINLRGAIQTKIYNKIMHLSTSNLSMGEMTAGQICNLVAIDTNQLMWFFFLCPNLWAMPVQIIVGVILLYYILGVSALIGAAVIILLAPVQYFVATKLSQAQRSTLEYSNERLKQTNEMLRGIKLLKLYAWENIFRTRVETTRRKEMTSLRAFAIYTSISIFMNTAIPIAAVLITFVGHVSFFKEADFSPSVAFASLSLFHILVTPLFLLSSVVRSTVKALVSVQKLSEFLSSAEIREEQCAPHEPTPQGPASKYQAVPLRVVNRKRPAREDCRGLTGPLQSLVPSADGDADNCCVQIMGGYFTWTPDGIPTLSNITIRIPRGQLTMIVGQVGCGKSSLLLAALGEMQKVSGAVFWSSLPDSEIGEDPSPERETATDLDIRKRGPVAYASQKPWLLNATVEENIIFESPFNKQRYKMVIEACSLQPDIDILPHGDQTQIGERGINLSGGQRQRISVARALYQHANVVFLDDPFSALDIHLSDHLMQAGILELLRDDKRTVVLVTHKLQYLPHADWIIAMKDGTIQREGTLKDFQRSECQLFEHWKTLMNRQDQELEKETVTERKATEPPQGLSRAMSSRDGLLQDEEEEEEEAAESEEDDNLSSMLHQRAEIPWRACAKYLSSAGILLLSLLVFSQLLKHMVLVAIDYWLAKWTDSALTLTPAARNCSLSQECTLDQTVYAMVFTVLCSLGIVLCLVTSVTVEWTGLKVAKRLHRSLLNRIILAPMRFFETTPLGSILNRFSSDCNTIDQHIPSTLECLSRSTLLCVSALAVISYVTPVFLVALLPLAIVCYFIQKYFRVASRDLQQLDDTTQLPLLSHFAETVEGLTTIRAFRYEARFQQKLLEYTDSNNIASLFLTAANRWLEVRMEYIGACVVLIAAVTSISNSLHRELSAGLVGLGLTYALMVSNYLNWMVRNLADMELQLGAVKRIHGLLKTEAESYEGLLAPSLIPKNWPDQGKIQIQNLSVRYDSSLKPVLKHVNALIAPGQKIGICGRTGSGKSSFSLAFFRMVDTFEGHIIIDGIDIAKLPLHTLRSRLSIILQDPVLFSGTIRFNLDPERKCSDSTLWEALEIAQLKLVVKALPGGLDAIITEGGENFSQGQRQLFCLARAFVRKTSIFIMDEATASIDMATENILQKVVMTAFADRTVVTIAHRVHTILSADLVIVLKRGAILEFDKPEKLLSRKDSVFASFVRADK
Chain of K+ channels of the beta cells of the pancreas (Q14654 whole entry partner): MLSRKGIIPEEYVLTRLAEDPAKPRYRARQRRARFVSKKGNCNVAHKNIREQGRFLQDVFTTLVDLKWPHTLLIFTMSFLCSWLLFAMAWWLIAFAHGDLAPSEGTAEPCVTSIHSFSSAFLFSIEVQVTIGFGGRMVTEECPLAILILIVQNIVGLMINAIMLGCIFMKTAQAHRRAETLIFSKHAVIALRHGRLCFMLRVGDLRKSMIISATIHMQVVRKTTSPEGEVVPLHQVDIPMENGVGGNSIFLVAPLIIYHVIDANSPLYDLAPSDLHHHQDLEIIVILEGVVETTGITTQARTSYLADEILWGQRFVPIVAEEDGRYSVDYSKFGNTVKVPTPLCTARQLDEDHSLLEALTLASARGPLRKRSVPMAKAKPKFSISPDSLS

As usually defined, the KD is the constant that tells how readily two partners part at equilibrium. Consider `CCC1=C(C)CN(C(=O)NCCc2ccc(S(=O)(=O)NC(=O)N[C@H]3CC[C@H](C)CC3)cc2)C1=O` [Glimepride, glimepride], for which the 1/Fractional response in data set [1] (glimepride dose 5 Mcg/kg) amounted to 17.24; in data set [1] (glimepride dose 10 Mcg/kg) it was 4.48; in data set [1] (glimepride dose 20 Mcg/kg) it was 1.0. Besides, the “Response AUC reduction” value in data set [1] (glimepride dose 5 Mcg/kg) is 30 mg·h/dL; in data set [1] (glimepride dose 10 Mcg/kg), 115 mg·h/dL; in data set [1] (glimepride dose 20 Mcg/kg) it was 514 mg·h/dL. For the same molecule, the KD result is “KD = 2.018 nM” in data set [1] and 2.0 nM in data set [1] (listed as glimepride). This molecule also came in with a Threshold dose in data set [1] (point of inflection of log dose response curve, humans) of 5 mcg/kg body weight.
As a reminder, the Kd is the constant that tells how readily two partners part at equilibrium. For the molecule `Cc1nnc2n1-c1ccc(Cl)cc1C(c1ccccc1)=NC2` [Alprazolam, alprazolam], in the data set on benzodiazepine receptors (alprazolam dose 4 Mcg/kg), the 1/A is 225.8, the 1/Fractional response was 3.8, the Response sleep time came to 63 min and the “A Free drug**” value came out at 0.0044 Mcg/ml. Moreover, in the data set on benzodiazepine receptors (alprazolam dose 6 Mcg/kg), the 1/A came to 151.4, the 1/Fractional response worked out at 2.4, the Response sleep time came to 100 min and the “A Free drug**” value is 0.0066 Mcg/ml. Moreover, in the data set on benzodiazepine receptors (alprazolam dose 8 Mcg/kg), the 1/A is listed as 49.8, the 1/Fractional response came out at 1.0, the Response sleep time came to 241 min and the “A Free drug**” value worked out at 0.0088 Mcg/ml. Further, the Threshold dose in the data set with benzodiazepine receptors (humans) came out at 4 mcg/kg bodyweight. In the data set with benzodiazepine receptors (in vivo in humans, response sleep time, free drug crossing the blood brain barrier, slope of reciprocals plot), this molecule registered a Kd of 50.8 nM.
In the case of `Cc1cnc(C(=O)NCCc2ccc(S(=O)(=O)NC(=O)NC3CCCCC3)cc2)cn1` [Glipizide, glipizide], the Kd in data set [2] was about 10 nM. In addition, the KD entry in data set [1] is recorded as “KD = 8.98 nM”; in data set [1] (listed as glipizide), 8.98 nM.
